Drawing on patent US20060045953A1 (priority 2004, published 2006), this text covers EC50 for 20 compounds.

This assay concerns the target T1, hT1R2/hT1R3 sweet receptor (Homo sapiens, UniProt Q7RTX0+Q8TE23).
T1 construct: expressed in transfected cells; host or cells: HEK293 derivative stably expressing Gα15, clone S-9
T1 sequence (Q8TE23 20-839): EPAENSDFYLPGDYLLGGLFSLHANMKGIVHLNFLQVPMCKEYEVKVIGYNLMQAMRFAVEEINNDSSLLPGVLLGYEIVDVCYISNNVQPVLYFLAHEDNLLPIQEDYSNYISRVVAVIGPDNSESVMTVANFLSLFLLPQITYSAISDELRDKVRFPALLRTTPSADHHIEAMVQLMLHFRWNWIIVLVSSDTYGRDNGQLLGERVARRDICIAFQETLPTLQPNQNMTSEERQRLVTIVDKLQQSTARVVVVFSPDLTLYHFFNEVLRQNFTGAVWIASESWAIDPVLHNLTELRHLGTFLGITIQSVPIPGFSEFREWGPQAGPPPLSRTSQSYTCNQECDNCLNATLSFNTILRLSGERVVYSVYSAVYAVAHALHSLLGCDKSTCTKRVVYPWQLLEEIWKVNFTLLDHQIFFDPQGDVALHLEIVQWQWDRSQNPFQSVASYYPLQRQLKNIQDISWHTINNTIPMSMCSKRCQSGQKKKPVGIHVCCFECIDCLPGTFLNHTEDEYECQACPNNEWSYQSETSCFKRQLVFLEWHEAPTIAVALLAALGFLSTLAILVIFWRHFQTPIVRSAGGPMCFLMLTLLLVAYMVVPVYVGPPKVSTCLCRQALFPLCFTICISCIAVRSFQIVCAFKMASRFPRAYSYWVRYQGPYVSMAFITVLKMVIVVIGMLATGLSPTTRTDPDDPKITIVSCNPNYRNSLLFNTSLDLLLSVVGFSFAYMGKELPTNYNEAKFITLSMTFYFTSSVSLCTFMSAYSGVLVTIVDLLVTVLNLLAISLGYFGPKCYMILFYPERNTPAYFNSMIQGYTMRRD
T1 sequence (Q7RTX0 21-852): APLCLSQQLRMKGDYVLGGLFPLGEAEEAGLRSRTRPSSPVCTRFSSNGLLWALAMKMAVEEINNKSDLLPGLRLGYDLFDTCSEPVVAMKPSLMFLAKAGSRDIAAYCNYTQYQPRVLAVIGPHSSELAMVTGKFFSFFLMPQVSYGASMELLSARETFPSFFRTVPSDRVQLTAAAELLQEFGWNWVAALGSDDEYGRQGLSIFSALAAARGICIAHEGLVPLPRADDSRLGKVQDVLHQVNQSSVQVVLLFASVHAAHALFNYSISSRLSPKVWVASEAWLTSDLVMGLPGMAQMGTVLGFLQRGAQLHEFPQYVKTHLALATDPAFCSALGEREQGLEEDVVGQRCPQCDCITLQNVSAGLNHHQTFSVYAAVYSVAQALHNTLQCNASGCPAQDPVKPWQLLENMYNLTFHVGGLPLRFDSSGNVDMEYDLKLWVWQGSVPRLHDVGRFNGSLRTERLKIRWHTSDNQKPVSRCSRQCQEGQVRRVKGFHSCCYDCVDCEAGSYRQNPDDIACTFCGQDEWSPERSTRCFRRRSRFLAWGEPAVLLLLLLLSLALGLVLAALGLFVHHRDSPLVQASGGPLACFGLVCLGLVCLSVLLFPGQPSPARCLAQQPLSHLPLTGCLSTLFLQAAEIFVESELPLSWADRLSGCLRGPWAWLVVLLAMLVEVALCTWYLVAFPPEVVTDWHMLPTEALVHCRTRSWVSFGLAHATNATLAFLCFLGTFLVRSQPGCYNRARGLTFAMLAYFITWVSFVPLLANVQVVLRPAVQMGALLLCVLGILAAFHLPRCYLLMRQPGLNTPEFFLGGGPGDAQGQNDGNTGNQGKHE
In words: In vitro hT1R2/hT1R3 sweet taste receptor activation assay (FLIPR, dose response). The assay is classed as cell-based. The procedure, abridged:
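S-9 cells expressing hT1R2/hT1R3, loaded with 4 µM Fluo-3AM 1 h at room temperature. Calcium response on FLIPR at room temperature in D-PBS, with 10 concentrations from 60 nM to 30 µM in duplicate.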

[1] abbreviates: Table E, Sweet Enhancer Amides, read-out: Sweet EC50.
[2] abbreviates: read-out: EC50 for activation of a hT1R2/hT1R3 sweet receptor expressed in an HEK293 cell line.

Read-outs that look alike come from different tables or passages of the source.

`CC1CCC(NC(=O)c2ccc(F)c(C(F)(F)F)c2)CC1` (centres unmarked) [Example E60, 4-fluoro-N-(4-methylcyclohexyl)-3-(trifluoromethyl)benzamide]: under setting [1], the EC50 came out at 2370 nM.

On to `CC1CCCCC1NC(=O)c1ccc(F)c(Cl)c1` (centres unmarked) [Example E53, 3-chloro-4-fluoro-N-(2-methylcyclohexyl)benzamide], for which the EC50 under setting [1] worked out at 1700 nM.

For the compound `Cc1c(F)c(F)c(C(=O)NC2CCCC(C)C2C)c(F)c1F` (centres unmarked) [Example E43, N-(2,3-dimethylcyclohexyl)-2,3,5,6-tetrafluoro-4-methylbenzamide], under setting [1], the EC50 was 1080 nM.

On to `COc1c(Cl)ccc(Cl)c1C(=O)Nc1ccc(C)cc1C` [Example E97, 3,6-Dichloro-N-(2,4-dimethyl-phenyl)-2-methoxy-benzamide], for which the EC50 under setting [1] amounted to 4250 nM.

For `Cc1ccc(NC(=O)N2Cc3ccccc3C2)cc1` [Example E104, N-p-tolylisoindoline-2-carboxamide], under setting [1], the EC50 was determined as 3050 nM.

With `CC1CCCCC1NC(=O)c1cc(Cl)ccc1Cl` (centres unmarked) [Example E33, 2,5-dichloro-N-(2-methylcyclohexyl)benzamide], the EC50 under setting [1] turned out to be 630 nM.

With `Cc1c(F)c(F)c(C(=O)N[C@H](C)C(C)(C)C)c(F)c1F` [Example E31, (R)-N-(3,3-dimethylbutan-2-yl)-2,3,5,6-tetrafluoro-4-methylbenzamide], the EC50 under setting [1] is 490 nM.

In the case of `COc1ccc(NC(=O)N2Cc3ccccc3C2)cc1` [Example E108, N-(4-methoxyphenyl)isomdoline-2-carboxamide], under setting [1], the EC50 is 4990 nM.

For `C=CCc1c(F)c(F)c(C(=O)NC2CCCCC2)c(F)c1F` [Example E132, 4-allyl-N-cyclohexyl-2,3,5,6-tetrafluorobenzamide], the EC50 under setting [1] worked out at 550 nM.

Regarding `CSc1cc(C)c(C(=O)N[C@H](C)C(C)(C)C)c(C)c1` [Example 200, (R)-N-(3,3-dimethylbutan-2-yl)-2,6-dimethyl-4-(methylthio)benzamide], the EC50 under setting [2] was 1020 nM.

Consider `Cc1c(Cl)cccc1C(=O)N[C@H]1CCCc2ccccc21` [Example E13, (S)-3-chloro-2-methyl-N-(1,2,3,4-tetrahydronaphthalen-1-yl)benzamide], for which the EC50 under setting [1] is 2910 nM.

For the compound `O=C(Nc1cccc2c1CCCC2)N1CCc2ccccc21` [Example E119, N-(5,6,7,8-tetrahydronaphthalen-1-yl)indoline 1-carboxamide], under setting [1], the EC50 amounted to 1060 nM.

As to `CC(C)(C)c1csc(NC(=O)c2ccncc2)n1` [Example E96, N-(4-tert-Butyl-thiazol-2-yl)-isonicotinamide], the EC50 under setting [1] turned out to be 3730 nM.

On to `COc1cc(F)c(NC(=O)N2Cc3cccc(C)c3C2)c(OC)c1` [Example E117, N-(2-fluoro-4,6-dimethoxyphenyl)-4-methylisoindoline-2-carboxamide], for which, under setting [1], the EC50 worked out at 90 nM.

Regarding `Cc1cc(Cl)ccc1NC(=O)N1Cc2ccccc2C1` [Example 172, N-(4-chloro-2-methylphenyl)isoindoline-2-carboxamide], under setting [2], the EC50 was determined as 890 nM.

For `Cc1cccc2c1CN(C(=O)Nc1c(F)cc(Br)cc1F)C2` [Example 193, N-(4-bromo-2,6-difluorophenyl)-4-methylisoindoline-2-carboxamide], the EC50 under setting [2] amounted to 20 nM.

In the case of `O=C(NC1CCCc2ccccc21)c1cccc(Cl)c1O` (centres unmarked) [Example E7, 3-chloro-2-hydroxy-N-(1,2,3,4-tetrahydronaphthalen-1-yl)benzamide], the EC50 under setting [1] came to 1810 nM.

For the compound `CC1CCCC(NC(=O)Cc2c(F)c(F)c(F)c(F)c2F)C1C` (centres unmarked) [Example E74, N-(2,3-dimethylcyclohexyl)-2-(perfluorophenyl)acetamide], the EC50 under setting [1] was 3620 nM.

In the case of `CC12CCC(C1)C(C)(C)C2NC(=O)c1cccs1` (centres unmarked) [Example E73, Thiophene-2-carboxylic acid (1,3,3-trimethyl-bicyclo[2.2.1]hept-2-yl)-amide], under setting [1], the EC50 is 3360 nM.

For `CC1CCCC(NC(=O)c2cccc(Cl)c2Cl)C1C` (centres unmarked) [Example E76, 2,3-dichloro-N-(2,3-dimethylcyclohexyl)benzamide], under setting [1], the EC50 turned out to be 3990 nM.
